In ChEMBL document CHEMBL3879900, “aSMase inhibitors” (2012):
Activity calls are given as the source filed them. The rule behind the calls is not given here.

target: T1, Sphingomyelin phosphodiesterase (Homo sapiens) (UniProt P17405); assay: Inhibition of recombinant human acid sphingomyelinase expressed in HEKfreestyle293 cells using bodipy-C12 sphingomyelin as substrate and nanomolar to low micromolar concentration of compound after 1 hr by fluorescence assay
T1 sequence (whole entry): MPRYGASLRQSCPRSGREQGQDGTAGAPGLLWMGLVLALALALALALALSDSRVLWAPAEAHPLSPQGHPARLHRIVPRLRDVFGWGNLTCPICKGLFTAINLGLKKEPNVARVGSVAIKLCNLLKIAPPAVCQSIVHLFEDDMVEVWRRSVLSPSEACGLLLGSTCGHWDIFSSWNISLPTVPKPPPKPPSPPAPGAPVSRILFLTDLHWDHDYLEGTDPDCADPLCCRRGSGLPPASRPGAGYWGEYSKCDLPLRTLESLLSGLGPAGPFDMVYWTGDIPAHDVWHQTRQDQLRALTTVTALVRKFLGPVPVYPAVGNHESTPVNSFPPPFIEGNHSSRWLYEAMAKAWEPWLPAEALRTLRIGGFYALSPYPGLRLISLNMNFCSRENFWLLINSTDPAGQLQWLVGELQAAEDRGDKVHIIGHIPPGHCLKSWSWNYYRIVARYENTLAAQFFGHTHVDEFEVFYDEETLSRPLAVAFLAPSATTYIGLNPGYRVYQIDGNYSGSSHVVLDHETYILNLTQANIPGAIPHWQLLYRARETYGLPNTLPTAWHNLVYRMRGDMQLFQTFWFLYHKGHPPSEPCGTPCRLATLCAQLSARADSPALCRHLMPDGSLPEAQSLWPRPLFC

inhibition	Structure (SMILES)
Active	CCCCCCCCOc1ccc(-c2ccc(C(=O)Nc3cccc(CP(=O)(O)OCC)c3)cc2)cc1
Active	CCCCCCCCOc1ccc(-c2ccc(C(=O)Nc3ccccc3P(=O)(O)OCOC(=O)C(C)(C)C)cc2)cc1
Active	CCCCCCCCOc1ccc(-c2ccc(C(=O)Nc3ccccc3P(=O)(OCC)OCC)cc2)cc1
Active	CCCCCCCCOc1ccc(-c2ccc(C(=O)Nc3cccc(C(F)(F)C(F)(F)P(=O)(OCC)OCC)c3)cc2)cc1
Active	CCCCCCCCOc1ccc(-c2ccc(C(=O)Nc3ccccc3C(F)(F)P(=O)(O)OCC)cc2)cc1
Active	CCCCCCCCOc1ccc(-c2ccc(C(=O)Nc3ccccc3C(F)(F)C(F)(F)P(=O)(O)O)cc2)cc1
Active	CCCCCCCCOc1ccc(-c2ccc(C(=O)Nc3ccc(CP(=O)(O)O)cc3)cc2)cc1
Active	CCCCCCCCOc1ccc(-c2ccc(C(=O)N(CC)c3cccc(C(F)(F)P(=O)(OCC)OCC)c3)cc2)cc1
Active	CCCCOc1ccc(-c2ccc(C(=O)Nc3ccccc3CP(=O)(O)O)cc2)cc1
Active	CCCCCCCCOc1ccc(-c2ccc(C(=O)Nc3ccccc3CP(=O)(O)O)cc2)cc1
Active	CCCCCCCCOc1ccc(-c2ccc(C(=O)Nc3ccccc3C(F)(F)P(=O)(O)O)cc2)cc1
Active	CCCCCCCCOc1ccc(-c2ccc(C(=O)Nc3cccc(CP(=O)(OCC)OCC)c3)cc2)cc1
Active	O=C(Nc1ccccc1CP(=O)(O)O)c1ccc(-c2ccc(OCc3ccccc3)cc2)cc1
Active	CCCCCCCCOc1ccc(-c2ccc(C(=O)Nc3cccc(P(=O)(OCC)OCC)c3)cc2)cc1
Active	CCCCCCCCOc1ccc(-c2ccc(C(=O)Nc3cccc(P(=O)(O)OCC)c3)cc2)cc1
Active	CCCCCCCCOc1ccc(-c2ccc(C(=O)N(C)c3ccccc3C(F)(F)P(=O)(O)O)cc2)cc1
Active	CCCCCCCCOc1ccc(-c2ccc(C(=O)Nc3cccc(C(F)(F)P(=O)(O)OCC)c3)cc2)cc1
Active	CCCCCCCCOc1ccc(-c2ccc(C(=O)Nc3cccc(N4CC(=O)NS4(=O)=O)c3)cc2)cc1
Active	CCCCCCCCOc1ccc(-c2ccc(C(=O)Nc3ccccc3C(F)(F)P(=O)(OCC)OCC)cc2)cc1
Active	CCCCCCCCOc1ccc(-c2ccc(C(=O)Nc3ccc(CCP(=O)(O)O)cc3)cc2)cc1
Active	CCCCCCCCOc1ccc(-c2ccc(C(=O)Nc3cccc(CCP(=O)(O)O)c3)cc2)cc1
Active	CCCCCCCCOc1ccc(-c2ccc(C(=O)Nc3ccc(C(F)(F)P(=O)(O)OCC)cc3)cc2)cc1

More lines, now with the values behind:

Structure (SMILES)	inhibition
CCCCCCCCOc1ccc(-c2ccc(C(=O)Nc3cccc(P(=O)(O)O)c3)cc2)cc1	Active
CCCCCCCCOc1ccc(-c2ccc(C(=O)Nc3cccc(C(F)(F)P(=O)(O)O)c3)cc2)cc1	Active
CCCCCCCCOc1ccc(-c2ccc(C(=O)Nc3ccc(P(=O)(O)O)cc3)cc2)cc1	Active
O=C(Nc1ccccc1CP(=O)(O)O)C12CC3CC(C1)CC(c1ccccc1)(C3)C2	Active
CCCCCCCCOc1ccc(-c2ccc(C(=O)N(C)c3cccc(C(F)(F)P(=O)(O)O)c3)cc2)cc1	Active
CCCCCCCCOc1ccc(-c2ccc(C(=O)Nc3ccc(C(F)(F)C(F)(F)P(=O)(O)OCC)cc3)cc2)cc1	Active
CCCCCCCCOc1ccc(-c2ccc(C(=O)Nc3ccc(CCP(=O)(OCC)OCC)cc3)cc2)cc1	Active
CCCCCCCCOc1ccc(-c2ccc(C(=O)Nc3ccc(C(F)(F)P(=O)(O)O)cc3)cc2)cc1	Active
O=C(Nc1ccccc1CP(=O)(O)O)c1ccc(-c2ccccc2)cc1	Active
CCCCCCCCOc1ccc(-c2ccc(C(=O)Nc3ccccc3P(=O)(O)O)cc2)cc1	Active
CCCCCCCCOc1ccc(-c2ccc(C(=O)Nc3ccc(C(F)(F)CC(F)(F)P(=O)(OCC)OCC)cc3)cc2)cc1	Active
CCCCCCCCOc1ccc(-c2ccc(C(=O)N(C)c3cccc(C(F)(F)P(=O)(OCC)OCC)c3)cc2)cc1	Active
CCCCCCCCOc1ccc(-c2ccc(C(=O)N(C)c3ccccc3C(F)(F)P(=O)(OC)OCC)cc2)cc1 (stereo not drawn)	Active
CCCCCCCCOc1ccc(-c2ccc(C(=O)Nc3cccc(C(F)(F)P(=O)(OCC)OCC)c3)cc2)cc1	Active
CCCCCCCCCCOc1ccc(-c2ccc(C(=O)Nc3ccccc3CP(=O)(O)O)cc2)cc1	Active
CCCCCCCCOc1ccc(-c2ccc(C(=O)N(C)c3cccc(C(F)(F)P(=O)(OC)OCC)c3)cc2)cc1 (stereo not drawn)	Active
CCCCCCCCOc1ccc(-c2ccc(C(=O)Nc3ccccc3P(=O)(O)OCC)cc2)cc1	Active
CCCCCCCCOc1ccc(-c2ccc(C(=O)Nc3ccc(P(=O)(O)OCC)cc3)cc2)cc1	Active
COc1ccc(-c2ccc(C(=O)Nc3ccccc3CP(=O)(O)O)cc2)cc1	Active
CCCCCCCOc1ccc(-c2ccc(C(=O)Nc3cccc(P(=O)(O)O)c3)cc2)cc1	Active
CCCCCCCCOc1ccc(-c2ccc(C(=O)N(C)c3cccc(C(F)(F)P(=O)(O)OCC)c3)cc2)cc1	Active

Structure (SMILES)	inhibition
CCCCCCc1ccc(-c2ccc(C(=O)Nc3ccccc3CP(=O)([O-])OCC[N+](C)(C)C)cc2)cc1	Active
CCCCCCCCOc1ccc(-c2ccc(C(=O)Nc3ccccc3C(F)(F)P(=O)(OC)OCC)cc2)cc1 (stereo not drawn)	Active
CCCCCCCCOc1ccc(-c2ccc(C(=O)Nc3ccccc3CCP(=O)(O)O)cc2)cc1	Active
CCCCCCCCOc1ccc(-c2ccc(C(=O)Nc3cccc(CCP(=O)(OCC)OCC)c3)cc2)cc1	Active
CCCCCCCCCCOc1ccc(-c2ccc(C(=O)Nc3ccccc3P(=O)(OCC)OCC)cc2)cc1	Active
O=C(Nc1ccccc1CP(=O)(O)O)c1ccc(-c2ccc(O)cc2)cc1	Active
CCCCCCCCOc1ccc(-c2ccc(C(=O)Nc3ccccc3CCP(=O)(OCC)OCC)cc2)cc1	Active
CCCCCCCCOc1ccc(-c2ccc(C(=O)Nc3cccc(CP(=O)(O)O)c3)cc2)cc1	Active
CCCCCCCCOc1ccc(-c2ccc(C(=O)N(C)c3ccc(C(F)(F)P(=O)(OC)OCC)cc3)cc2)cc1 (stereo not drawn)	Active
CCCCCCCCOc1ccc(-c2ccc(C(=O)N(C)c3ccc(C(F)(F)P(=O)(OCC)OCC)cc3)cc2)cc1	Active
CCCCCCCCOc1ccc(-c2ccc(C(=O)N(C)c3ccccc3C(F)(F)P(=O)(OCC)OCC)cc2)cc1	Active
CCCCCCCCOc1ccc(-c2ccc(C(=O)Nc3ccc(P(=O)(OCC)OCC)cc3)cc2)cc1	Active
CCCCCCCCOc1ccc(-c2ccc(C(=O)Nc3cccc(C(F)(F)C(F)(F)P(=O)(O)O)c3)cc2)cc1	Active
CCCCCCCCOc1ccc(-c2ccc(C(=O)Nc3ccc(C(F)(F)P(=O)(OCC)OCC)cc3)cc2)cc1	Active
CCCCCCCCOc1ccc(-c2ccc(C(=O)Nc3ccccc3P(=O)(OCOC(=O)C(C)(C)C)OCOC(=O)C(C)(C)C)cc2)cc1	Active
CCCCCCCCOc1ccc(-c2ccc(C(=O)Nc3ccc(C(F)(F)C(F)(F)P(=O)(OCC)OCC)cc3)cc2)cc1	Active
CCCCCCCCOc1ccc(-c2ccc(C(=O)N(C)c3ccc(C(F)(F)P(=O)(O)O)cc3)cc2)cc1	Active
CCCCCCc1ccc(-c2ccc(C(=O)Nc3ccccc3CP(=O)(O)O)cc2)cc1	Active
CCCCCCCCOc1ccc(-c2ccc(C(=O)Nc3ccc(C(F)(F)C(F)(F)P(=O)(O)O)cc3)cc2)cc1	Active
CCCCCCCCOc1ccc(-c2ccc(C(=O)Nc3ccccc3C(F)(F)C(F)(F)P(=O)(OCC)OCC)cc2)cc1	Active
